Structures are written as SMILES.

The melting point is the temperature, or range, at which the solid turns liquid.

On to `Cc1cc(C(F)(C(F)(F)F)C(F)(F)F)ccc1N1C(=O)c2cccc(Cl)c2C1NC(C)(C)CS(C)(=O)=O` (stereo not shown) [Synthesis Example 2, 4-chloro-3-(2-methanesulfonyl-1,1-dimethylethylamino)-2-[2-methyl-4-(1,2,2,2-tetrafluoro-1-trifluoromethylethyl)phenyl]-2,3-dihydroisoindol-1-one], for which the melting point lay in the range of 154 to 156 °C.

(Values after patent US20070031514A1, “Use of isoindolinone derivatives as insecticides” (priority 2003, published 2007).)
